The values that follow are results of earlier work, collected in patent US20110077278A1, “Antifungal compositions and methods” (Troy Corporation, priority 2009, published 2011).

For data set [1] the following is noted: in metal working fluids; BBIT compared with IPBC; reported by US 6,861,395.
The subject of a further data set is certain fungi. Particulars: BBIT in the presence of sodium omadine and certain fungi; US 6,861,395.

As to `CCCCn1sc2ccccc2c1=O` [BBIT, 2-n-butyl-1,2-benzisothiazolin-3-one], the “stability to high temperature storage” value in data set [1] is “considerably more stable to high temperature storage than IPBC”. For the same molecule, the synergy entry with certain fungi is “exhibits synergy in the presence of sodium omadine and certain fungi”.
